“Also recorded” adds a separate entry of the source.

The source of these data is patent publication US20250085201A1, “SUBSTITUTED QUADRUPOLAR FLUORESCENT DYES FOR LIVE CELL IMAGING” (Northwestern University, priority 2023, published 2025).

Series [1] deals with MCF-7 breast cancer cells. The series is described as follows: Cell uptake and live cell laser scanning confocal imaging. In kind it is cell-based. The following applies: for uptake and intracellular distribution (confocal images): 24 h, λex=405 nm. As to the method: Because of its low cytotoxicity and emission (FIG. 3) in the green region (548 nm) at micromolar concentrations (ΦF=0.15), water-soluble 9·4Cl was subjected to live cell imaging with MCF-7 breast cancer cells. Living cells treated with the tetracationic cyclophane at 50 and 20 μM (FIG. 7) and as low as 1 μM (FIG. 10) concentrations, were imaged by laser scanning confocal microscopy.
MCF-7 Breast cancer cells were grown in standard Dulbecco's modified eagle medium (DMEM), which was supplemented with 10% Fetal Bovine Serum (FBS) and 1% Penicillin-Streptomycin (Corning). Cells were seeded into an 8-well imaging coverglass chamber (manufacturer-CellVis) or multiwell plate using phenol red free DMEM about 24 h prior to treatment. Dye 9·4Cl was resuspended in deionized H2O before being diluted to their final concentrations in the cell culture media. Cells were treated with the dye for 24 h prior to imaging. Uptake assays were carried out at concentrations from 1-50 μM, including a vehicle control (untreated). For the cell growth assays, cells were treated with the dye for 24 h at a range of concentrations from 0.1-50 μM.
Confocal imaging was performed on a Leica SP8 laser scanning confocal microscope on a DMi8 […] stand with LAS X software in the Biological Imaging Facility (BIF) at Northwestern University. Uptake images were taken with a 63×/1.4 NA objective, scanning at a zoom of two with a pinhole of one Airy unit (AU) at 600 Hz with a galvo scanner and line averaging of two. Images were 92.35×92.35 μm (1024×1024) with 10 slices in the z direction with a step size of 0.3 μm (total stack volume 3.0 μm). A single excitation wavelength (405 nm) was used at a power of approximately 14 μW. For the emission collection, a Leica spectral Hybrid (HyD) detector set to collect a wavelength range of 500-650 nm (with a gain of 24%) was used. A transmitted light image was also collected simultaneously using the timeline photomultiplier (TL-PMT). Images were processed with FIJI/ImageJ (NIH) and settings were kept consistent throughout the series of images. Images presented are maximum intensity projections.

A short description of the next series: Solubility (qualitative). It counts as physicochemical. The conditions noted are these: Cl− salt.
The nature of series [2]: Absolute fluorescence quantum yield (integrating sphere). It counts as physicochemical. The conditions noted are these: in H2O. As for the experimental part: (§1) Fluorescent dyes were dissolved in the appropriate solvents to afford 1 mM solutions prior to spectroscopic analysis. A portion of 30 μL of a 1 mM solution was diluted by adding a selected solvent to a sample with a total volume of 3000 μL, affording a 1×10^−5 M solution. UV/Vis Absorption spectra were recorded in glass cuvettes on a UV-3600 Shimadzu spectrophotometer. Steady-state emission spectra were acquired in quartz cuvettes with optical path-lengths of 10 mm containing the solution being analyzed using a HORIBA Fluoromax4 spectrofluorometer, which was equipped with an integrating sphere for determining the absolute photoluminescence quantum yield.
Steady-state and time-resolved emission spectra for dyes 1-6, 7·2PF6 and 9·4PF6 were acquired using a HORIBA Fluorolog-3 spectrofluorometer, equipped with a time-correlated single photon counting (TCSPC) module (diode laser excitation at λ=375 nm) and an integrating sphere, which was used for absolute photo-luminescence quantum yield determinations. Picosecond time-resolved fluorescence measurements were recorded using a commercial direct-diode-pumped 100 kHz amplifier (Spirit 1040-HE, Spectra-Physics), producing a fundamental beam of 1040 nm (350 fs, 12 W) which was used to pump a non-collinear optical parametric amplifier (Spirit-NOPA, SpectraPhysics) capable of delivering tunable, high-repetition-rate pulses with pulse widths as short as sub-20 fs. Dyes 1-6, 7·2PF6 and 9·4PF6 were excited with 350 nm, 2 nJ laser pulses. Fluorescence was detected using a Hamamatsu C4780 Streakscope as previously described in the literature. Samples were prepared in 2-mm quartz cuvettes. All data were acquired in the single-photon-counting mode using the Hamamatsu HPD-TA software. The temporal resolution was approximately 2% of the sweep window. Single wavelength kinetic analysis was performed using a nonlinear least-squares fit to a sum of exponentials convoluted with an instrument response function. Visible and near-infrared femtosecond and nanosecond transient absorption (fsTA and nsTA, respectively) spectroscopies were performed following descriptions already recorded in the literature. The 330 nm, ˜100 fs pump pulses were generated at 1 μJ per pulse using a commercial collinear optical parametric amplifier (TOPAS-Prime, Light-Conversion, Ltd.); 414-nm pump pulses were obtained by second-harmonic generation of the 828 nm fundamental. The pump polarization was randomized using a commercial depolarizer (DPU-25-A, Thorlabs, Inc.) to eliminate any orientational dynamics resulting from the experiment. Spectra were collected on commercial spectrometers (customized Ultrafast Systems Helios and EOS spectrometers, for fsTA and nsTA, respectively) for each time window. All samples were stirred to avoid localized heating or degradation effects. The optical density was maintained at 0.6 for all samples.
Steady-state and time-resolved emission spectra for dyes 7·2PF6 and 9·4PF6 were acquired using a HORIBA Fluorolog-3 spectrofluorometer, equipped with a time-correlated single photon counting (TCSPC) module (diode laser excitation at =375 nm) and an integrating sphere, which was used for absolute photo-luminescence quantum yield determinations. Picosecond time-resolved fluorescence measurements were recorded using a commercial direct-diode-pumped 100 kHz amplifier (Spirit 1040-HE, Spectra-Physics), producing a fundamental beam of 1040 nm (350 fs, 12 W) which was used to pump a non-collinear optical parametric amplifier (Spirit-NOPA, SpectraPhysics) capable of delivering tunable, high-repetition-rate pulses with pulse widths as short as sub-20 fs. The samples 7·2PF6 and 9·4PF6 were excited with […], 2 nJ laser pulses. Fluorescence was detected using a Hamamatsu C4780 Streakscope as previously described in the literature.^71 Samples were prepared in 2-mm quartz cuvettes. All data were acquired in the single-photon-counting mode using the Hamamatsu HPD-TA software. […]

Series [3] can be described thus: Steady-state UV/Vis absorption and fluorescence emission spectra. It counts as physicochemical. The conditions noted are these: micromolar concentrations. As for the experimental part:
Fluorescent dyes 1-6, 7·2PF6, 8·2PF6, 9·4PF6 and 9·4Cl were dissolved in THF (1-5), MeCN (6, 7·2PF6, 8·2PF6 and 9.4PF6) and H2O (9.4Cl), respectively, to afford 10 μM solutions prior to spectroscopic analysis. For comparison, their normalized (i) UV/Vis absorption (FIG. 2) and (ii) the fluorescence emission (FIG. 3) spectra of quadrupolar dyes are overlayed, displaying a large range of S1 absorbance and emission maxima, which rely highly on their quadrupolarity that is correlated to the electron-deficiency of the ARs.
as §1

As to `COc1cc2c(OC)cc1-c1cc[n+](cc1)Cc1ccc(cc1)C[n+]1ccc(cc1)-c1cc(OC)c(cc1OC)-c1cc[n+](cc1)Cc1ccc(cc1)C[n+]1ccc-2cc1` [9·4Cl], the “uptake and intracellular distribution (confocal images)” value is “taken up by living cells and concentrated in intracellular compartments” in series [1] (50 μM and 10 μM, emission 500-650 nm); “taken up by living cells and concentrated in intracellular compartments” in series [1] (MCF-7, 1 μM, emission 500-650 nm). For the same molecule, in series [1] (MCF-7, 405 nm laser excitation, emission 500-650 nm), the fluorescence in cells result was “fluoresces brightly in cells”. Further, the cell uptake result in series [1] (MCF-7 cells, 1-50 μM) is “readily taken up by cells”. In series [1] (as low as 1 μM), the “cell uptake at low treatment concentrations” value is given as “readily taken up by cells”. The “solubility in H2O” value in the series “Solubility (qualitative)” is reported as “readily soluble; also recorded: Water soluble”. In addition, the “Quantum Yield (ΦF)” value in series [2] was determined as 0.15. Besides, in series [3], the “emission in the green region” value was 548 nm.
